# Assay results: patent US20190117596A1 (WAYNE STATE UNIVERSITY, priority 2016, published 2019)
# Entries after “also recorded” stand apart in the source; their conditions may differ.
# Columns and labels:
# IL-6 expression = assay: TGF-β-induced IL-6 expression in H1793 lung adenocarcinoma cells (qPCR); assay type: cell-based, human; settings: CAY10444 10 μM
# Description: FIGS. 14A-14E. S1P3 regulates the TGF-β-stimulated IL-6 expression. (14A) H1793 lung adenocarcinoma cells were pre-treated for 30 min with inhibitor of TGF-β receptor I (SB4, SB431542, 10 uM) or Smad3 (SIS3, 2 uM), followed by stimulating with TGF-β (1 ng/ml) for 4 hrs. Levels of IL-6 were analyzed by qPCR. […] The S1P-induced IL-6 expression is diminished when S1PR3 were knocked-down. (14E) HBEC2-KT normal lung epithelial cells were transduced with adenoviral particles carrying S1PR3 (Ad-S1PR3) or β-galactosidase (Ad-Ctrl, 200 m.o.i.) for overnight, followed by stimulating with or without S1P (200 nM, 4 hrs). mRNA levels of IL-6 were measured by qPCR analysis. Data are mean±SD from a representative experiment (n=3). Each experiment was repeated at least one time with similar results. Data are mean+S.D. (n=3). *, p<0.05; NS, non-statistic significance; t-test.
# (§1) Real-time PCR Analysis. Total RNA was isolated using TRIzol reagent (Invitrogen) and was reverse-transcribed with an oligo(dT) primer (Promega) by Moloney Murine Leukemia Virus (M-MLV) Reverse Transcriptase (Promega) for first-strand cDNA synthesis. For real-time PCR quantitation, 50 ng of reversely transcribed cDNAs were amplified with the ABI 7500 system (Applied Biosystems) in the presence of TaqMan DNA polymerase. […]
# S1PR3 expression [1] = assay: TGF-β-stimulated S1PR3 up-regulation in HBEC2-KT cells (qPCR); assay type: cell-based, human; settings: 30 min pretreatment, SB-431542 10 μM, SIS3 2 μM, SB-203580 50 nM, BAY11-7085 10 μM, JNK inhibitor II 10 μM, TGF-β 4 h
# Description: FIGS. 4A-4H. TGF-β/SMAD3 signaling axis up-regulates S1PR3. (4A), HBEC2-KT cells were treated with TGF-β (1 ng/ml) for various times. mRNA levels of S1P receptors were measured by qPCR analysis. Data are mean±S.D. of triplicate determinations. *, p<0.05, Student's t test. (4B), protein levels of S1PR3 in TGF-β (1 ng/ml)-treated HBEC2-KT cells. Lower panel, Western blot intensity was quantitated by National Institutes of Health ImageJ. Data (normalized to actin) are mean±S.D. of triplicate determinations. * and **, p<0.05 and 0.01, respectively, Student's t test. (4C), CHO cells were transduced with adenoviral particles (multiplicity of infection of 200) carrying S1PR1, S1PR2, or S1PR3 vector for 20 h as previously described (8). Extracts were blotted with antibody against S1PR3 (Cayman), S1PR2 (Cayman), or S1PR1 (E49) (8). […] Medium was quantitated for S1P, ceramide (Cer), and sphingomyelin (SPM) by LC-MS/MS (29, 46). […] S1PR3 levels were measured by qPCR, following TGF-β treatment (4 h). […] Activation of p38, JNK, and NFκB was measured by Western blotting with phospho-p38 (P-p38), phospho-JNK (P-p54^JNK and P-p46^JNK), and phospho-IκBα (p-IκBα). […]
# Real-time PCR Analysis. […] For real-time PCR quantitation, 50 ng of reversely transcribed cDNAs were amplified with the ABI 7500 system (Applied Biosystems) in the presence of TaqMan DNA polymerase. […]
# S1PR3 expression [2] = assay: S1PR3 up-regulation in K-Ras G12V-expressing HEK293 cells (qPCR); assay type: cell-based; settings: HEK293 pBabe-K-Ras G12V, anti-TGF-β 10 μg/ml, SB-431542 10 μM, SIS3 2 μM, 37° C., 24 h
# Description: FIGS. 3A-3F. TGF-β/SMAD3 signaling contributes to oncogenic K-Ras mutant-stimulated S1PR3 up-regulation. (3A), P, potential SMAD3 binding sites in S1PR3 promoter. 0, transcription initiation site. (3B-3D), HEK293 cells were stably transfected with pBabe-K-Ras^G12V or pBabe control vector. Levels of total cellular K-Ras (3B), S1PRs (3C), and TGF-β (3D) were measured by qPCR analysis. (3E), HEK293 cells transfected with pBabe-K-Ras^G12V or pBabe control vector were incubated with anti-TGF-β (Cell Signaling, antibody number 3711, 10 μg/ml) or irrelevant normal rabbit IgG (10 μg/ml) at 37° C. for 24 h. Levels of S1PR3 were quantitated by qPCR. (3F), HEK293 cells transfected with pBabe-K-Ras^G12V or pBabe control vector were treated with or without SB-431542 (SB4) (inhibitor of TGF-β receptor 1, 10 μM) or SIS3 (inhibitor of SMAD3, 2 μM) at 37° C. for 24 h. Levels of S1PR3 were quantitated by qPCR. **, p<0.01, n=3, Student's t test.
# as §1
# lung adenocarcinoma = assay: Lung adenocarcinoma in LSL-KRas G12D mouse model (Ad-Cre); assay type: in vivo; settings: Ad-Cre injected mice; 10 mg/kg i.p. every two days; lungs analyzed 2 months later
# Description: FIGS. 8A-AD. […] Mice were injected with or without Ad-Cre. Lungs were analyzed for adenocarcinoma 2 months later. (8A) LSL-KRas^G12D injected with Ad-Cre. (8B) LSL-KRas^G12D injected with Ad-Cre. […] (8C) LSL-KRas^G12D mice injected with Ad-Ctrl. (8D) wild-type C57BL/6 mice injected with Ad-Cre. Arrows, lung adenocarcinomas. Scale bar=[…].
# S1PR2 = molecular target: T1, S1PR2 (Homo sapiens, UniProt O95136); assay: S1P-stimulated ERK1/2 activation in CHO cells transduced with S1PR2 (Western blot p-ERK); assay type: cell-based; settings: TY-52156 10 μM, 10 min, then S1P 200 nM
# T1 construct: expressed in transfected cells; host or cells: CHO cells, adenoviral transduction
# T1 sequence (O95136 whole entry, species assumed): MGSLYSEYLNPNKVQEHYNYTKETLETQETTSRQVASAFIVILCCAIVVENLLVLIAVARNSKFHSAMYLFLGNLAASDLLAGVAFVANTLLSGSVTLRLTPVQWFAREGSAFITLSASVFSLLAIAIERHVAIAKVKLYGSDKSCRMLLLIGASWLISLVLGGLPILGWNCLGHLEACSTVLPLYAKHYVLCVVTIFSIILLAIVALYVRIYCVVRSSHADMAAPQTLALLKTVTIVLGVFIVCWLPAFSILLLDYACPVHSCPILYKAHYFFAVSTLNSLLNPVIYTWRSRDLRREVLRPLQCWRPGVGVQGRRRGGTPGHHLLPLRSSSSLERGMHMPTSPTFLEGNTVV
# Description: (§2) FIGS. 7A-7E. Inhibition of S1PR3 diminishes lung carcinoma growth. (7A), C57BL/6 mice were subcutaneously inoculated with LLC cells (1×10^6 cells). 1 week later, mice were intraperitoneally administered with VPC23019 (1.5 mg/kg of body weight) or control vehicle every 3 days. (7B), S1PR1 and S1PR3 levels in Lewis lung carcinoma cells. -ve, PCR reactions were performed without cDNA. **, p<0.01, n=6, ANOVA. (7C), CHO cells were transduced with adenoviral particles carrying S1PR1, S1PR2, S1PR3, or pcDNA control vector. Cells were serum-starved for 24 h. […] ERK1/2 activation (p-ERK) was measured by Western blotting analysis. (7D), C57BL/6 mice were subcutaneously inoculated with LLC cells (1×10^6 cells). […] (7E), tumor weights were measured 24 days after implantation. **, p<0.01, n=6, ANOVA.
# (§3) Western Blotting Analysis. Protein extraction and Western blotting were performed as described (11). Briefly, cells were collected in ice-cold PBS using cell scrapers followed by centrifugation (500×g, 5 min). […] After centrifugation at 15,000×g for 20 min, supernatant was collected and protein concentration was measured using a bicinchoninic acid protein assay kit with BSA as standard. […]
# [3] = system: human lung adenocarcinoma cells exhibiting K-Ras G12D mutation; assay: Proliferation and colony formation of cultured lung adenocarcinoma cells; assay type: cell-based
# S1PR1 = molecular target: T2, S1PR1 (Homo sapiens, UniProt P21453); assay: S1P-stimulated ERK1/2 activation in CHO cells transduced with S1PR1 (Western blot p-ERK); assay type: cell-based; settings: TY-52156 10 μM, 10 min, then S1P 200 nM
# T2 construct: expressed in transfected cells; host or cells: CHO cells, adenoviral transduction
# T2 sequence (P21453 whole entry, species assumed): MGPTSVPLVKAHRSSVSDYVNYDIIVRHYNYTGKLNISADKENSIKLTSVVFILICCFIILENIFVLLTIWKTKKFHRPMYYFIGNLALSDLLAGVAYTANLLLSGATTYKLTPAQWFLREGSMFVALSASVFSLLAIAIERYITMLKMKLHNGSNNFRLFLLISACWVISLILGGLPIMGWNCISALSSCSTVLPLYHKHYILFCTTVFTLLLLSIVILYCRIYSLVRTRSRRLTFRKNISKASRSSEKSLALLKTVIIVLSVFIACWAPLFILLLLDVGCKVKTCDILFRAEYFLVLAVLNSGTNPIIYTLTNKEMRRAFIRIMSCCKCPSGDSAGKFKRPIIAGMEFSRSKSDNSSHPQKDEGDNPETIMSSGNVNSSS
# Description: as §2, §3
# [4] = system: Lewis lung carcinoma cells; assay: Subcutaneous Lewis lung carcinoma tumor growth in C57BL/6 mice; assay type: in vivo, mouse; settings: s.c. LLC cells
# Description: as §2
# Tumor Growth and Lung Colonization in Mice. All animal procedures were performed according to the National Institutes of Health and institutional guidelines, and were approved by the Wayne State University Animal Use and Care Committee. For subcutaneous implantation, lung carcinoma cells were adjusted to 1×10^7 cells/ml. Mice were injected with 0.1 ml of cell suspension into the subcutaneous dorsa in the proximal midline. […] Tumor volume was measured in two dimensions using calipers, and volume was determined using the formula width 2×length×0.52 (49). […]
compound,measurement,setting,value
CCCCCCCCCCCC1N[C@H](C(=O)O)CS1 (some centres unmarked) [CAY10444],TGF-β-induced IL-6 expression,IL-6 expression,significantly diminished
NC(=O)c1ccc(-c2nc(-c3ccc4c(c3)OCO4)c(-c3ccccn3)[nH]2)cc1 [SB-431542],TGF-β-stimulated S1PR3 up-regulation,S1PR3 expression [1],abrogated
same,S1PR3 up-regulation in K-Ras G12V-expressing cells,S1PR3 expression [2],abrogated
COc1cc2c(cc1OC)CN(C(=O)/C=C/c1c(-c3ccccc3)n(C)c3ncccc13)CC2 [SIS3],TGF-β-stimulated S1PR3 up-regulation,S1PR3 expression [1],abrogated
same,S1PR3 up-regulation in K-Ras G12V-expressing cells,S1PR3 expression [2],abrogated
"CC(C)(C)C(=O)/C(=N/c1ccc(Cl)cc1)NNc1ccc(Cl)cc1 [TY-52156, 1-(4-chlorophenylhydrazono)-1-(4-chlorophenylamino)-3,3-dimethyl-2-butanone]",lung adenocarcinoma in LSL-KRas G12D mouse model,lung adenocarcinoma,significantly inhibits
same,S1P/S1PR2-stimulated ERK1/2 activation,S1PR2,had no effect
same,proliferation and colony formation,[3],effective in inhibiting
same,S1P/S1PR1-stimulated ERK1/2 activation,S1PR1,had no effect
same,"growth of Lewis lung carcinoma (tumor volume, tumor weight 24 days after implantation)","[4]; 10 mg/kg intraperitoneally every 2 days from 1 week after inoculation, 10 mg/kg",significantly suppressed; also recorded: significantly diminished
CCCCCCCCc1cccc(NC(=O)[C@H](N)COP(=O)(O)O)c1 [VPC23019],tumor growth,"[4]; 1.5 mg/kg intraperitoneally every 3 days from 1 week after inoculation, 1.5 mg/kg",significantly inhibited; also recorded: significantly diminished
